Source: patent publication US7423177B2, “Carboxamide derivatives as therapeutic agents” (TransTech Pharma, Inc., priority 2001, dated 2008)

Legend:
[1] = target: T1, RAGE (sRAGE) binding to Carboxymethyl Lysine (CML) (Homo sapiens, UniProt Q15109); assay: ELISA assay: inhibition of sRAGE binding to plate-bound CML; conditions: ligand CML coated on plate, concentration at which 50% signal has been inhibited
T1 construct: extracellular domain can be isolated by proteolysis of RAGE to generate soluble RAGE (sRAGE) comprised of the V and C domains
T1 sequence (Q15109 23-342 limits assumed): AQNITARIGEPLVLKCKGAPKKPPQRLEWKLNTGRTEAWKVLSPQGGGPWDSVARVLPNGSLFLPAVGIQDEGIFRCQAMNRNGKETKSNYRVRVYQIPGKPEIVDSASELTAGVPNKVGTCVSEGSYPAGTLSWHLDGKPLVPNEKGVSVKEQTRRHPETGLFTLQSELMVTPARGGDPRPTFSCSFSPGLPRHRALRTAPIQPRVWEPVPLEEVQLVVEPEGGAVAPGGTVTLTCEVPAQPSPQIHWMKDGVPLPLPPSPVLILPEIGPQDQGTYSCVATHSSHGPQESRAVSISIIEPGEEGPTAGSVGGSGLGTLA
Description: (§1) This method is also described and claimed in co-pending U.S. Ser. No. 09/799,152 filed Mar. 5, 2001.
(§2) S100b, β-amyloid and CML (500 ng/100 μL/well) in 100 mM sodium bicarbonate/sodium carbonate buffer (pH 9.8) is loaded onto the wells of a NUNC Maxisorp flat bottom 96 -well microtitre plate. The plate is incubated at 4° C. overnight. The wells are aspirated and treated with 50 mM imidazole buffer saline (pH 7.2) (with 1 mM CaCl2/MgCl2) containing 1% bovine serum albumin (BSA) (300 μL/well) for two h at 37° C.
(§3) Test compounds are dissolved in nanopure water (concentration: 10-100 μM). DMSO may be used as co-solvent. 25 μL of test compound solution in 2% DMSO is added, along with 75 μL SRAGE (4.0×10^−4 mg/mL FAC) to each well and samples are incubated for 1 h at 37° C. The wells are washed 3 times with 155 mM NaCl pH 7.2 buffer saline and are soaked 10 seconds between each wash.
(§4) Non-Radioactive Binding is Performed by Adding:
(§5) 10 μL Biotinylated goat F(ab′)2 Anti-mouse IgG. (8.0×10^−4 mg/mL, FAC)
(§6) 10 μL Alk-phos-Sterptavidin (3×10^−3 mg/mL FAC)
(§7) 10 μL Polyclonal antibody for sRAGE (FAC 6.0×10^−3 mg/mL)
(§8) to 5 mL 50 mM imidazole buffer saline (pH 7.2) containing 0.2% bovine serum albumin and 1 mM […]. The mixture is incubated for 30 minutes at 37° C. 100 μL complex is added to each well and incubation is allowed to proceed at rt for 1 h. Wells are washed 3 times with wash buffer and soaked 10 s between each wash. 100 μL 1 mg/mL (pNPP) in 1 M diethanolamine (pH adjusted to 9.8 with HCl) is added. Color is allowed to develop in the dark for 1 to 2 h at rt. The reaction is quenched with 10 μL of stop solution (0.5 N NaOH in 50% ethanol) and the absorbance is measured spectrophotometrically with a microplate reader at 405 nm.

[2] = target: T2, RAGE (sRAGE) binding to S100b (Homo sapiens, UniProt Q15109); assay: ELISA assay: inhibition of sRAGE binding to plate-bound S100b; conditions: ligand S100b coated on plate, concentration at which 50% signal has been inhibited, read-out: ELISA Assay IC50 (μM) S-100b
T2 construct: extracellular domain can be isolated by proteolysis of RAGE to generate soluble RAGE (sRAGE) comprised of the V and C domains
T2 sequence (Q15109 23-342 limits assumed): as above
Description: as §1, §2, §3, §4, §5, §6, §7, §8

[3] = target: T3, RAGE (sRAGE) binding to β-amyloid (Homo sapiens, UniProt Q15109); assay: ELISA assay: inhibition of sRAGE binding to plate-bound β-amyloid; conditions: ligand β-amyloid coated on plate, concentration at which 50% signal has been inhibited
T3 construct: extracellular domain can be isolated by proteolysis of RAGE to generate soluble RAGE (sRAGE) comprised of the V and C domains
T3 sequence (Q15109 23-342 limits assumed): as above
Description: as §1, §2, §3, §4, §5, §6, §7, §8

SMILES	IC50 [1] [µM]	IC50 [2] [µM]	IC50 [3] [µM]
CCCCOc1cc(OCCCN(CC)CC)ccc1NC(=O)C(CC1CCCN(C(=O)OC(C)(C)C)C1)NC(=O)OCC1c2ccccc2-c2ccccc21 (stereo not drawn) [Example 29, 3-(Tert-butoxycarbonylpiperidin-3-yl)-2-(9-fluorenylmethoxycarbonylamino)propionic Acid 4-Diethylaminopropoxy-2-butoxyaniline Amide]	1 to 5	1 to 5	1 to 5
CCCCN(C(=O)[C@@H](Cc1ccc(OCc2ccccc2)cc1)NC(=O)OC(C)(C)C)c1cccc(OCCCN(CC)CC)c1 [Example 20, (2R)-2-tert-butoxycarbonylamino-3-[4-(benzyloxy)phenyl]propionic Acid 3-(3-diethylaminopropoxy)-N-butylaniline Amide]	1 to 5	1 to 5	1 to 5
CCN(CC)CCCOc1ccc(N(CC2CCCCC2)C(=O)[C@H](N)Cc2ccc(OCc3ccccc3)cc2)cc1 [Example 16, (2R)-2-amino-3-[4-(benzyloxy)phenyl]propionic Acid 4-(3-diethylaminopropoxy)-N-cyclohexylmethylaniline Amide]	1 to 5	1 to 5	1 to 5
CCN(CC)CCCOc1ccc(NC(=O)CC(N)c2ccc(OC(C)(C)C)cc2)c(OCCCN(CC)CC)c1 (stereo not drawn) [Example 9, 3-amino-3-(4-tert-butoxyphenyl)propionic Acid 2,4-Di-(3-diethylaminopropoxy)anline Amide]	1 to 5	1 to 5	1 to 5
CCCCOc1cc(OCCCN(CC)CC)ccc1NC(=O)C(CC1CCN(C(=O)c2ccccc2)CC1)NC(=O)c1ccccc1 (stereo not drawn) [Example 28, 3-(1-Benzoylpiperidin-4-yl)-2-benzoylaminopropionic Acid 4-Diethylaminopropoxy-2-butoxyaniline Amide]	1 to 5	5 to 10	5 to 10
CCCCN(C(=O)[C@H](N)Cc1ccc(OCc2ccccc2)cc1)c1ccc(OCCCN(CC)CC)cc1 [Example 19, (2R)-2-amino-3-[4-(benzyloxy)phenyl]propionic Acid 4-(3-diethylaminopropoxy)-N-butylaniline Amide]	1 to 5	1 to 5	1 to 5
CCN(CC)CCCOc1ccc(N(CC2CCCC2)C(=O)[C@@H](Cc2ccc(OCc3ccccc3)cc2)NC(=O)OC(C)(C)C)cc1 [Example 14, (2R)-2-tert-butoxycarbonylamino-3-[4-(benzyloxy)phenyl]propionic Acid 4-(3-diethylaminopropoxy)-N-cyclopentylmethylaniline Amide]	1 to 5	1 to 5	1 to 5
CCN(CC)CCCOc1ccc(NC(=O)CC(NC(=O)OCC2c3ccccc3-c3ccccc32)c2cccc(OC(C)(C)C)c2)c(OCCCN(CC)CC)c1 (stereo not drawn) [Example 2, 3-(3-Tert-butoxyphenyl)-3-(9-fluorenylmethoxycarbonylamino)propionic Acid 2,4-Di-(3-diethylaminopropoxy)aniline Amide]	0.5 to 1	< 0.5	1 to 5
CCN(CC)CCCOc1ccc(N(CC2CCCC2)C(=O)[C@H](N)Cc2ccc(OCc3ccccc3)cc2)cc1 [Example 17, (2R)-2-amino-3-[4-(benzyloxy)phenyl]propionic Acid 4-(3-diethylaminopropoxy)-N-cyclopentylmethylaniline Amide]	10 to 20	5 to 10	10 to 20
CCCCN(C(=O)[C@H](N)Cc1ccc(OCc2ccccc2)cc1)c1cccc(OCCCN(CC)CC)c1 [Example 21, (2R)-2-amino-3-[4-(benzyloxy)phenyl]propionic Acid 3-(3-diethylaminopropoxy)-N-butylaniline Amide]	1 to 5	1 to 5	1 to 5
